Measured values reported in the NIST ThermoML archive (doi:10.1021/je800157v).
± gives the expanded uncertainty stated by the source.

How the values were obtained:
[1] = 101 kPa, Liquid
[2] = xn = mol fraction of the nth substance listed; conditions: 101 kPa, Liquid

SMILES | mass density ([1]; 288.15 K) | mass density ([1]; 293.15 K) | mass density ([1]; 298.15 K) | mass density ([1]; 303.15 K) | mass density ([1]; 308.15 K) | mass density ([1]; 313.15 K) | also measured
c1ccccc1 [benzene] | 884.25 ± 0.31 kg/m3 | 878.92 ± 0.31 kg/m3 | 873.58 ± 0.32 kg/m3 | 868.23 ± 0.33 kg/m3 | 862.87 ± 0.34 kg/m3 | 857.5 ± 0.35 kg/m3 | 
c1ccccc1 [benzene] + CCC(C)O |  |  |  |  |  |  | mass density ([2]; 288.15 K, x2 = 0): 884.25 ± 0.31 kg/m3; mass density ([2]; 293.15 K, x2 = 0): 878.92 ± 0.31 kg/m3; mass density ([2]; 298.15 K, x2 = 0): 873.58 ± 0.32 kg/m3; mass density ([2]; 303.15 K, x2 = 0): 868.23 ± 0.33 kg/m3; mass density ([2]; 308.15 K, x2 = 0): 862.87 ± 0.34 kg/m3; mass density ([2]; 313.15 K, x2 = 0): 857.5 ± 0.35 kg/m3
CCC(C)O (stereo not given) [butan-2-ol] | 810.64 ± 0.55 kg/m3 | 806.59 ± 0.56 kg/m3 | 802.47 ± 0.56 kg/m3 | 798.27 ± 0.57 kg/m3 | 793.97 ± 0.57 kg/m3 | 789.59 ± 0.58 kg/m3 | 
CCC(C)O (stereo not given) [butan-2-ol] + ClC(Cl)Cl |  |  |  |  |  |  | mass density ([2]; 288.15 K, x1 = 1): 810.64 ± 0.55 kg/m3; mass density ([2]; 293.15 K, x1 = 1): 806.59 ± 0.56 kg/m3; mass density ([2]; 298.15 K, x1 = 1): 802.47 ± 0.56 kg/m3; mass density ([2]; 303.15 K, x1 = 1): 798.27 ± 0.57 kg/m3; mass density ([2]; 308.15 K, x1 = 1): 793.97 ± 0.57 kg/m3; mass density ([2]; 313.15 K, x1 = 1): 789.59 ± 0.58 kg/m3
ClC(Cl)Cl [trichloromethane] | 1498.08 ± 0.92 kg/m3 | 1488.64 ± 0.91 kg/m3 | 1479.15 ± 0.89 kg/m3 | 1469.61 ± 0.88 kg/m3 | 1460.03 ± 0.86 kg/m3 | 1450.41 ± 0.85 kg/m3 | 
